The subject of series [1] is Mus musculus. Briefly: Toxicity in B10.RIII mouse assessed as body fate level in serum at 30 mg/kg, po qd for 5 weeks relative to control. Particulars: in vivo, 840 h. It counts as organism-based. Further details: dose 30 mg/kg, route oral.
Series [2] concerns Mus musculus. Briefly: Toxicity in B10.RIII mouse assessed as free fatty acid level in serum at 3 mg/kg, po qd for 5 weeks relative to control. It is filed as organism-based. Also on record: dose 3 mg/kg, route oral. Conditions: in vivo, 840 h.
Series [3] relates to Mus musculus. Briefly: Antiarthritic activity in B10.RIII mouse collagen/complete Freund's adjuvant-induced arthritis model assessed as reduction of disease score at 3 mg/kg, po qd for 5 weeks relative to control. Further details: scale not given: the % may be the effect or the level left. It is filed as functional.
The test system of series [4] is Mus musculus. Kind of series: Antiinflammatory activity in mouse assessed as inhibition of LPS-induced TNFalpha production at 3 mg/kg, po. It is filed as functional.
Series [5] relates to Mus musculus. Kind of series: Toxicity in B10.RIII mouse assessed as body fate level in serum at 3 mg/kg, po qd for 5 weeks relative to control. It counts as organism-based. Further details: dose 3 mg/kg, route oral. Conditions: in vivo, 840 h.
The test system of series [6] is Mus musculus. Kind of series: Toxicity in B10.RIII mouse assessed as triglyceride level in serum at 3 mg/kg, po qd for 5 weeks relative to control. It counts as organism-based. Further details: dose 3 mg/kg, route oral. Conditions: in vivo, 840 h.
Series [7] concerns Mus musculus. Kind of series: Toxicity in B10.RIII mouse assessed as triglyceride level in serum at 30 mg/kg, po qd for 5 weeks relative to control. It counts as organism-based. Further details: dose 30 mg/kg, route oral. Conditions: in vivo, 840 h.
Series [8] concerns Mus musculus. Kind of series: Toxicity in B10.RIII mouse assessed as free fatty acid level in serum at 30 mg/kg, po qd for 5 weeks relative to control. It counts as organism-based. Also on record: dose 30 mg/kg, route oral. Particulars: in vivo, 840 h.
Series [9] concerns Mus musculus. Briefly: Toxicity in B10.RIII mouse assessed as insulin level in serum at 30 mg/kg, po qd for 5 weeks relative to control. It counts as organism-based. Particulars: in vivo, 840 h. Also on record: dose 30 mg/kg, route oral.
The test system of series [10] is Mus musculus. Kind of series: Toxicity in B10.RIII mouse assessed as insulin level in serum at 3 mg/kg, po qd for 5 weeks relative to control. It counts as organism-based. Particulars: in vivo, 840 h. Further details: dose 3 mg/kg, route oral.
Series [11] concerns Mus musculus. Briefly: Antiarthritic activity in B10.RIII mouse collagen/complete Freund's adjuvant-induced arthritis model assessed as reduction of disease score at 30 mg/kg, po qd for 5 weeks relative to control. It is filed as functional. Also on record: scale not given: the % may be the effect or the level left.

These results are taken from ChEMBL document CHEMBL3232739, “Discovery of a potent and dissociated non-steroidal glucocorticoid receptor agonist containing an alkyl carbinol pharmacophore” (Bioorg Med Chem Lett, 2014).

Turning to `C[C@]12C=CC(=O)C=C1CC[C@@H]1[C@@H]2[C@@H](O)C[C@@]2(C)[C@H]1CC[C@]2(O)C(=O)CO` [PREDNISOLONE], the Activity with Mus musculus [1] is given as 53%; with Mus musculus [2], 16%; in the series on Mus musculus [3], -42%; with Mus musculus [5], 13%; in the series with Mus musculus [6] it was -11%; with Mus musculus [7], 55%. The Activity in the series on Mus musculus [8] is listed as 27%; with Mus musculus [9], 187%; with Mus musculus [10] it was 37%; in the series on Mus musculus [11] it was -80%. The inhibition in vivo at 3 mg/kg with Mus musculus [4] was found to be 87%.
